“Also recorded” adds a separate entry of the source.
How the values were obtained:
[1] = target: T1, αvβ5 integrin (Homo sapiens, UniProt P06756+P18084); assay: Solid-phase receptor binding assay, [125I]-Echistatin competition, αvβ5; conditions: αvβ5 purified from human placenta; competition with [125I]-Echistatin
T1 construct: purified from human placenta; from tissue; host or cells: human placenta
Method: Solid-phase receptor binding assay. [^125I]-Echistatin, labelled according to the lactoperoxidase method and with a specific activity of 2000 Ci/mmol, and αvβ3 and αvβ5 integrins, purified from human placenta, are used for the in vitro assays. Purified αvβ3 and αvβ5 receptors are respectively diluted to 500 ng/mL and 1000 ng/mL in 20 mM Tris (pH 7.4), 150 mM NaCl, 2 mM CaCl2, 1 mM MgCl2, 1 mM MnCl2. An amount of the diluted receptor solutions (100 μL/well) is added to a 96-well microtiter plate (Optiplate-96 HB, PerkinElmer Life Sciences, Boston, Mass.) and incubated at 4° C. for 16 h. Then, the plate is washed once with an incubation buffer [20 mM Tris (pH 7.4), 150 mM NaCl, 2 mM CaCl2, 1 mM MgCl2, 1 mM MnCl2, 1% BSA] and incubated for additional 2 h at room temperature. […] After an incubation period of 3 h at room temperature, the plate is washed three times with the incubation buffer, then the radioactivity is measured in a plate counter Top-Count NXT (Perkin Elmer Life Sciences, Boston, Mass.) using 200 μL/well of scintillating liquid MicroScint-40 (PerkinElmer Life Sciences, Boston, Mass.). […] IC50 values are determined by fitting the binding inhibition data with a non-linear regression, using the GraphPad Prism 4.0 software package (GraphPad Prism, San Diego, Calif.). […]

[2] = target: T2, αvβ3 integrin (Homo sapiens, UniProt P05106+P06756); assay: Solid-phase receptor binding assay, [125I]-Echistatin competition, αvβ3; conditions: for IC50: αvβ3 purified from human placenta, competition with [125I]-Echistatin
T2 construct: purified from human placenta; from tissue; host or cells: human placenta
Method: Solid-phase receptor binding assay. [^125I]-Echistatin, labelled according to the lactoperoxidase method and with a specific activity of 2000 Ci/mmol, and αvβ3 and αvβ5 integrins, purified from human placenta, are used for the in vitro assays. Purified αvβ3 and αvβ5 receptors are respectively diluted to 500 ng/mL and 1000 ng/mL in 20 mM Tris (pH 7.4), 150 mM NaCl, 2 mM CaCl2, 1 mM MgCl2, 1 mM MnCl2. An amount of the diluted receptor solutions (100 μL/well) is added to a 96-well microtiter plate (Optiplate-96 HB, PerkinElmer Life Sciences, Boston, Mass.) and incubated at 4° C. for 16 h. Then, the plate is washed once with an incubation buffer [20 mM Tris (pH 7.4), 150 mM NaCl, 2 mM CaCl2, 1 mM MgCl2, 1 mM MnCl2, 1% BSA] and incubated for additional 2 h at room temperature. The plate is treated twice with the same buffer, and competitive binding experiments are carried out with a fixed concentration of [^125I]-Echistatin (0.05 nM and 0.1 nM for αvβ3 and αvβ5 respectively) and concentrations of the test compounds ranging from 0.01 nM to 100 μM. All the assays are carried out in triplicate at a final volume of 0.2 mL, each containing the following species: 0.05 mL of [^125I]-Echistatina, 0.04 mL of the test compounds, and 0.11 mL of the incubation buffer. Non-specific binding is defined as the [^125I]-Echistatin bound in the presence of excess (1 μM) of non-labelled echistatin. After an incubation period of 3 h at room temperature, the plate is washed three times with the incubation buffer, then the radioactivity is measured in a plate counter Top-Count NXT (Perkin Elmer Life Sciences, Boston, Mass.) using 200 μL/well of scintillating liquid MicroScint-40 (PerkinElmer Life Sciences, Boston, Mass.). Data analysis. IC50 values are determined by fitting the binding inhibition data with a non-linear regression, using the GraphPad Prism 4.0 software package (GraphPad Prism, San Diego, Calif.). […] The inhibition curves better fitted according to a two-sites model (p<0.05) rather than a single-site model are considered to be significant.

[3] = system: A375M melanoma cell line; assay: Melanoma cell line assay, inhibition of cell adhesion to RGD-containing substrates; type: cell-based, human; conditions: compounds at 10, 1.0 and 0.1 μM, FIG. 3
Method: A series of experiments carried out using the flux cytometry technique and specific monoclonal antibodies, allowed for the setup of particular human melanoma cells characterized by an over-expression of integrin receptors. Such cells have been used to test the capability of selected compounds of formula (I) at 10, 1.0 and 0.1 μM concentrations, of inhibiting the binding between these cells and suitable substrates containing the RGD sequence, such as vitronectin, fibronectin, and osteopontin (FIG. 3).
Melanoma cell line assay. The selected cell line for this study is the A375M, which are in vivo selected melanoma cells starting from A375P cells isolated from a amelanotic human melanoma. The expression of the RGD-dependent integrinic pattern, comprising αvβ3, αvβ5, α5β1 integrins, of A375M cells is determined by the flux cytometry technique (FACScanto, Becton & Dickinson) and by RT-PCR. With aim to evaluate the ability of compounds of formula (I) of binding to integrins exposed to the melanoma cells surface, the inhibition of adhesion of such cells to vitronectin, fibronectin and osteopontin are measured. A spectrophotometric evaluation of the cellular content of the culture plates used in the adhesion tests allows for the precision and the correlation of the results obtained in different experiments.

| SMILES | IC50 [2] | also measured |
| --- | --- | --- |
| N=C(N)NCCCc1cn(CC(=O)N[C@@H](CC(=O)O)c2ccccc2)nn1 [Compound 38] | 16.4 nM | IC50 [1]: 1020 nM |
| O=C(O)C[C@H](NC(=O)Cn1cc(CCCNCc2nc3ccccc3[nH]2)nn1)c1ccc(F)cc1 [Compound 57] | 200 nM |  |
| N=C(N)NCCCc1cn(CC(=O)NCCC(=O)O)nn1 [Compound 55] | 13 nM |  |
| N=C(N)NCCCc1cn(CC(=O)N[C@@H](CC(=O)O)c2ccc(O)cc2)nn1 [Compound 54] | 2100 nM |  |
| N=C(NCCCc1cn(CC(=O)N[C@@H](CC(=O)O)c2ccccc2)nn1)NCCc1ccc(O)cc1 [Compound 59] | 308 nM |  |
| Cc1ccc(S(=O)(=O)N(CCn2cc(CCNC(=N)N)nn2)CC(=O)O)cc1 [Compound 52] |  | inhibition at 1 µM ([2]; 1 μM concentration): 54%; inhibition at 10 µM ([2]; 10 μM concentration): 77% |
| N=C(N)NCCCc1cn(CC(=O)NC(CC(=O)O)c2ccc(F)cc2)nn1 (centres unmarked) [Compound 49] | 101 nM |  |
| N=C(N)NCCCc1cn(CC(=O)NC(CC(=O)O)c2ccc(F)cc2)nn1 (centres unmarked) [Compound 48] | 215 nM | IC50 [1]: 9900 nM; inhibition of adhesion of melanoma cells to fibronectin [3]: minor effect; inhibition of binding of melanoma cells to osteopontin [3]: significantly inhibits; also recorded: minor effect; inhibition of binding of melanoma cells to vitronectin [3]: significantly inhibits |

Source: patent publication US8809338B2, “1,2,3-triazole-based peptidomimetic integrin inhibitors for the diagnosis and therapy of tumors” (Universita' Degli Studi di Firenze, priority 2010, dated 2014)
